Source: patent US20230293535A1, “ERBB/BTK INHIBITORS” (Dizal (Jiangsu) Pharmaceutical Co., Ltd., priority 2018, published 2023)
Structures can show the parent of a compound that is named as a salt. Where two headings read alike, the source gives them in different places.

Tests used:
Assay type in all cases: cell-based
Ri-1 cells = test: BTK (wt) cell proliferation, Ri-1 (CellTiter-Glo, 72 h); conditions: Ri-1, 72 h, read-out: BTK WT Ri-1 GI50;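 further: viable cells quantified as cellular ATP luminescence, proliferation normalized to a time-zero plate and the DMSO control, compounds tested across a dilution series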
[1] = system: Her2 exon 20 insertion YVMA transduced NIH-3T3 cell line; test: Cell proliferation, Her2 YVMAins NIH-3T3 (CellTiter-Glo, 72 h); conditions: Mus musculus, NIH3T3, 72 h;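 further: viable cells quantified by ATP luminescence, growth over a day-zero baseline plate expressed as percent of DMSO control growth, compound dilution series in 10% FBS medium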
DB cells = test: BTK (wt) cell proliferation, DB (CellTiter-Glo, 72 h); conditions: Homo sapiens, DB, read-out: Non-BCR activated DB GI50;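 further: DB cells in 384-well plates given a dilution series of compound, viable cells read by ATP luminescence, growth expressed versus DMSO control after subtracting a time-zero plate reading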
TMD-8 cells = test: BTK (wt) cell proliferation, TMD-8 (CellTiter-Glo, 72 h); conditions: Homo sapiens, TMD8, 72 h, read-out: BTK WT TMD-8 GI50;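 further: viable cells quantified by ATP-based luminescence, proliferation expressed as percent of DMSO control after subtracting a time-zero baseline plate read at dosing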
[2] = system: NCI-H1975 EGFR L858R/T790M cells; test: Cell proliferation, NCI-H1975 EGFR L858R/T790M (CellTiter-Glo, 72 h); conditions: Homo sapiens, NCI-H1975, 72 h;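 further: viable cells quantified by luciferase-based ATP luminescence, proliferation expressed relative to DMSO-treated wells (100%) after subtracting a parallel plate read at the time of dosing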
WT EGFR cell line A-431 = test: Cell proliferation, WT EGFR A431 (CellTiter-Glo, 72 h); conditions: Homo sapiens, A-431, 72 h;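 further: proliferation from a luminescent ATP viability signal, expressed as 100 × (treated minus time-zero plate) over (DMSO control minus time-zero plate), cells grown with 10% FBS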
Ba/F3 EGFR NPH ins cells = test: Cell proliferation, Ba/F3 EGFR NPH ins (CellTiter-Glo, 72 h); conditions: Ba/F3 EGFR, 72 h;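 further: IL3-independent cells carrying constitutively phosphorylated EGFR, compound dilution series, viable cells quantified by ATP luminescence, growth relative to DMSO wells after subtracting pre-dosing (day 0) baseline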
Ba/F3 EGFR ASV ins cells = test: Cell proliferation, Ba/F3 EGFR ASV ins (CellTiter-Glo, 72 h); conditions: Ba/F3 EGFR, 72 h;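 further: IL3-independent Ba/F3 cells transduced with EGFR V769_D770insASV, cellular ATP luminescence after compound exposure, growth relative to DMSO control with the day-0 baseline reading subtracted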
OCI-LY-10 cells = test: BTK (wt) cell proliferation, OCI-LY-10 (CellTiter-Glo, 72 h); conditions: Homo sapiens, OCI-Ly10, 72 h, read-out: BTK WT OCI-LY-10 GI50;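 further: viable cells quantified via cellular ATP luminescence, proliferation given as percent of DMSO control after subtracting a duplicate plate read at time of dosing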
[3] = molecular target: T1, human Her2 exon 20 insertion mutation YVMA (Homo sapiens, UniProt P04626, INS775YVMA); test: Her2 Exon 20 YVMA insertion cellular phosphorylation inhibition (MSD p-Her2 Y1248/total Her2); conditions: Her2 YVMAins cells, 4 h compound;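 further: lentivirally transduced NIH-3T3 cells in 1% FBS medium, electrochemiluminescent MSD read-out, graded compound concentrations at 37 °C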
T1 construct: expressed in transfected cells; host or cells: NIH-3T3, lentiviral transduction, puromycin selection
Description: The resulting cell line expressed phosphorylated Her2 protein and its proliferation depended on the mutation gene, which could be used for in vitro PD and anti-proliferation assays.
(§1) One day before the test, WT or mutant cells were seeded in 96 well plates at appropriate concentrations with corresponding growth media supplemented with 1% FBS, and incubated overnight. The next day, tested compounds at a series of concentrations were added into each individual well of the plates, and the plates were incubated for 4 h at 37° C. with 5% CO2.
The EGFR (Y1068) phosphorylation level (activity) of cells in each well were then measured with MSD kit named “MULTI-SPOT®96 4-Spot HB Prototype EGFR Triplex [sequence]: pEGFR(Tyr1068),pEGFR(Tyr1173), Total EGFR” according to the manufacturer’s instruction (MESO SCALE DISCOVERY, Cat# N45ZB-1). The assay is an electrochemiluminescent method for determining both phosphorylated and total EGFR of cells with an MSD SECTOR® Imager and the ratio of p-EGFR/total EGFR can be generated by the machine. The Her2 (Y1248) phosphorylation level (activity) of cells in each well were measured with MSD Kit named “Phospho-ErbB2 (Tyr1248) Assay Whole Cell Lysate Kit” according to the manufacturer’s instruction (MESO SCALE DISCOVERY, Cat# K151CLD-3). The assay is an electrochemiluminescent method (MESO SCALE DISCOVERY) for determining both phosphorylated and total Her2 of cells with an MSD SECTOR® Imager and then the ratio of p-Her2/total Her2 can be generated by the machine.

[4] = molecular target: T2, human EGFR exon 20 V769_D770insASV (Homo sapiens, UniProt P00533, INS769ASV); test: EGFR Exon20 ASV insertion cellular phosphorylation inhibition (MSD pEGFR Y1068/total EGFR); conditions: Ba/F3 EGFR ASV ins cells, 4 h compound, p-EGFR(Y1068)/total EGFR;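 further: electrochemiluminescent readout on an MSD SECTOR Imager, IL3-independent transduced cells in medium with 1% FBS, compound concentration series at 37 °C and 5% CO2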
T2 construct: expressed in transfected cells; host or cells: Ba/F3 (DSMZ ACC-300), lentiviral transduction, puromycin selection, IL3 depletion

[5] = molecular target: T3, human EGFR exon 20 H773_V774insNPH (Homo sapiens, UniProt P00533, INS773NPH); test: EGFR Exon20 NPH insertion cellular phosphorylation inhibition (MSD pEGFR Y1068/total EGFR); conditions: Ba/F3 EGFR NPH ins cells, 4 h compound, p-EGFR(Y1068)/total EGFR;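 further: IL3-independent Ba/F3 cells with constitutively phosphorylated EGFR, compound exposure at 37 °C under 5% CO2, electrochemiluminescent MSD measurement of the p-EGFR to total EGFR ratio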
T3 construct: host or cells: Ba/F3
Description: as §1
The EGFR (Y1068) phosphorylation level (activity) of cells in each well were then measured with MSD kit named “MULTI-SPOT®96 4-Spot HB Prototype EGFR Triplex [sequence]: pEGFR(Tyr1068),pEGFR(Tyr1173), Total EGFR” according to the manufacturer’s instruction (MESO SCALE DISCOVERY, Cat# N45ZB-1). The assay is an electrochemiluminescent method for determining both phosphorylated and total EGFR of cells with an MSD SECTOR® Imager and the ratio of p-EGFR/total EGFR can be generated by the machine.

EGFR L858R&T790M = molecular target: T4, EGFR L858R&T790M (Homo sapiens, UniProt P00533, L858R/T790M); test: EGFR L858R and T790M cellular phosphorylation inhibition in NCI-H1975 (MSD); conditions: NCI-H1975 cells, 4 h compound, p-EGFR(Y1068)/total EGFR; read-out: EGFR L858R and T790M mutation IC50;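 further: phosphorylated and total EGFR detected by electrochemiluminescence, cells exposed to compound in medium containing 1% FBS at 37 °C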
T4 construct: host or cells: NCI-H1975

[6] = read-out: Her2 Exon 20 YVMA insertion GI50 (nM)
[7] = read-out: EGFR L858R and T790M mutation GI50 (nM)
[8] = read-out: EGFR WT A431 GI50 (nM)
[9] = read-out: EGFR Exon20 NPH insertion GI50 (nM)
[10] = read-out: EGFR Exon20 ASV insertion GI50 (nM)
[11] = Ri-1 cells, 72 h, CellTiter-Glo
[12] = Her2 YVMAins cells, 72 h proliferation, read-out: Her2 Exon 20 YVMA insertion GI50
[13] = TMD-8 cells, 72 h, CellTiter-Glo
[14] = NCI-H1975, 72 h proliferation, read-out: EGFR L858R and T790M mutation GI50
[15] = A431, 72 h proliferation, read-out: EGFR WT A431 GI50
[16] = Ba/F3 EGFR NPH ins, 72 h proliferation, read-out: EGFR Exon20 NPH insertion GI50
[17] = Ba/F3 EGFR ASV ins, 72 h proliferation, read-out: EGFR Exon20 ASV insertion GI50
[18] = OCI-LY-10 cells, 72 h, CellTiter-Glo

T2 sequence (P00533 with tags, fused parts or gaps INS769ASV): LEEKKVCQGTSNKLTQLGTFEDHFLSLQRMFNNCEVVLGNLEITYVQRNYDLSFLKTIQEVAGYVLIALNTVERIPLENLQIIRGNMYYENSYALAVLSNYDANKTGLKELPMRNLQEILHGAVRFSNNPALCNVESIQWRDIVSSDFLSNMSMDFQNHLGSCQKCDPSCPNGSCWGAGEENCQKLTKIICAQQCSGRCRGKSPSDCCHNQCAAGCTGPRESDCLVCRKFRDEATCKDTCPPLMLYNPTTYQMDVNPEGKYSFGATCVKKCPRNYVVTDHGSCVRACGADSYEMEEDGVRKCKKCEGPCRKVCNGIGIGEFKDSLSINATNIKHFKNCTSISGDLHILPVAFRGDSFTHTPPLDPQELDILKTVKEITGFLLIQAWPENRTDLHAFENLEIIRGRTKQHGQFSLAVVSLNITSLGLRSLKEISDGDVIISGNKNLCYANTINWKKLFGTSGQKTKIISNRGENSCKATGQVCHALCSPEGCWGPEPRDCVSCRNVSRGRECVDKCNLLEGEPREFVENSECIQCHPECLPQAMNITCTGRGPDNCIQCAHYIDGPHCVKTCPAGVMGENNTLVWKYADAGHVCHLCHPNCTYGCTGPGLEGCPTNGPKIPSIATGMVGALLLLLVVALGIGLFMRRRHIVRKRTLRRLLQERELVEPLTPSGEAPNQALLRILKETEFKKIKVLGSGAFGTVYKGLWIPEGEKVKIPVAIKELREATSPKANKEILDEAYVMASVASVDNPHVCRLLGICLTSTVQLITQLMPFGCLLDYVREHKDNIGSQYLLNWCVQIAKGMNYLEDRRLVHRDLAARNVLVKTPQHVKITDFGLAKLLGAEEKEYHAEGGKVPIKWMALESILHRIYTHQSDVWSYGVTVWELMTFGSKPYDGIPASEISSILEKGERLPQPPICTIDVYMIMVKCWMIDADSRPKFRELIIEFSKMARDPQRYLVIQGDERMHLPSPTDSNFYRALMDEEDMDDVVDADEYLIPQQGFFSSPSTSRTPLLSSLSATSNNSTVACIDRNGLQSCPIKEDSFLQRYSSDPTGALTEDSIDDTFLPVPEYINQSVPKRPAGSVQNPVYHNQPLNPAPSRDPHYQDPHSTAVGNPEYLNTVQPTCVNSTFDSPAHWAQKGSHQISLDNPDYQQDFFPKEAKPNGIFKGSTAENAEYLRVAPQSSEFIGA
T1 sequence (P04626 with tags, fused parts or gaps INS775YVMA): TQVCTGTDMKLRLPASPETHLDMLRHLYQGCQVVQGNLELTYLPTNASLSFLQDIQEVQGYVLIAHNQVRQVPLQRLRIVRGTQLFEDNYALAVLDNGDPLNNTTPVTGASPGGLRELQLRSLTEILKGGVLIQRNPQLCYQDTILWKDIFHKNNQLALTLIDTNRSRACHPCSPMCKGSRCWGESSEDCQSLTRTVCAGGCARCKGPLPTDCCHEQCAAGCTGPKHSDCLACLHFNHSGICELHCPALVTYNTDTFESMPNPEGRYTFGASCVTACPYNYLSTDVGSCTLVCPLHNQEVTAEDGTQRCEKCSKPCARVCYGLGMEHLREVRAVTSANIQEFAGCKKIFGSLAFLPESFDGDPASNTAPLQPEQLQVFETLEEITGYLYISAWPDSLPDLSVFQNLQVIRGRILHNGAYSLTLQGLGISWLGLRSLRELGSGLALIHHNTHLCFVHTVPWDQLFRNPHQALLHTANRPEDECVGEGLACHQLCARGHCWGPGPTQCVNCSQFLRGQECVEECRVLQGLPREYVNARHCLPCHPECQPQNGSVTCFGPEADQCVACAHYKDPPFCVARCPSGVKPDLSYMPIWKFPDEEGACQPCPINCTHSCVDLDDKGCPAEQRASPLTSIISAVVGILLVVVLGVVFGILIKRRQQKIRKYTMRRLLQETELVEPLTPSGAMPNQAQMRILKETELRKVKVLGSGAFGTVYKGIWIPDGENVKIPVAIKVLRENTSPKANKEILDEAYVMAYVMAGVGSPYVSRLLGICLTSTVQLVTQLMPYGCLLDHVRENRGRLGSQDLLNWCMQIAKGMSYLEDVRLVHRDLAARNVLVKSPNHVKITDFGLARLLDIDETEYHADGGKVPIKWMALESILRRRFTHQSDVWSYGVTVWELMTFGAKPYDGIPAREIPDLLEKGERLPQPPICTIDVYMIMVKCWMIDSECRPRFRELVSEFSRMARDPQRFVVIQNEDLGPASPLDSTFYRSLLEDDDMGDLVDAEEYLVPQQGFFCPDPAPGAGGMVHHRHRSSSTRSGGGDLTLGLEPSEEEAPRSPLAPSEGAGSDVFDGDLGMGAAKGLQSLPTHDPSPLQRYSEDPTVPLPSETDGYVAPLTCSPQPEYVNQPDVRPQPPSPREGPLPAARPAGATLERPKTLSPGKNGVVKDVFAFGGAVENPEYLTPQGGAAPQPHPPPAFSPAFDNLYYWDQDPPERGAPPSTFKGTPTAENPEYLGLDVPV
T3 sequence (P00533 with tags, fused parts or gaps INS773NPH): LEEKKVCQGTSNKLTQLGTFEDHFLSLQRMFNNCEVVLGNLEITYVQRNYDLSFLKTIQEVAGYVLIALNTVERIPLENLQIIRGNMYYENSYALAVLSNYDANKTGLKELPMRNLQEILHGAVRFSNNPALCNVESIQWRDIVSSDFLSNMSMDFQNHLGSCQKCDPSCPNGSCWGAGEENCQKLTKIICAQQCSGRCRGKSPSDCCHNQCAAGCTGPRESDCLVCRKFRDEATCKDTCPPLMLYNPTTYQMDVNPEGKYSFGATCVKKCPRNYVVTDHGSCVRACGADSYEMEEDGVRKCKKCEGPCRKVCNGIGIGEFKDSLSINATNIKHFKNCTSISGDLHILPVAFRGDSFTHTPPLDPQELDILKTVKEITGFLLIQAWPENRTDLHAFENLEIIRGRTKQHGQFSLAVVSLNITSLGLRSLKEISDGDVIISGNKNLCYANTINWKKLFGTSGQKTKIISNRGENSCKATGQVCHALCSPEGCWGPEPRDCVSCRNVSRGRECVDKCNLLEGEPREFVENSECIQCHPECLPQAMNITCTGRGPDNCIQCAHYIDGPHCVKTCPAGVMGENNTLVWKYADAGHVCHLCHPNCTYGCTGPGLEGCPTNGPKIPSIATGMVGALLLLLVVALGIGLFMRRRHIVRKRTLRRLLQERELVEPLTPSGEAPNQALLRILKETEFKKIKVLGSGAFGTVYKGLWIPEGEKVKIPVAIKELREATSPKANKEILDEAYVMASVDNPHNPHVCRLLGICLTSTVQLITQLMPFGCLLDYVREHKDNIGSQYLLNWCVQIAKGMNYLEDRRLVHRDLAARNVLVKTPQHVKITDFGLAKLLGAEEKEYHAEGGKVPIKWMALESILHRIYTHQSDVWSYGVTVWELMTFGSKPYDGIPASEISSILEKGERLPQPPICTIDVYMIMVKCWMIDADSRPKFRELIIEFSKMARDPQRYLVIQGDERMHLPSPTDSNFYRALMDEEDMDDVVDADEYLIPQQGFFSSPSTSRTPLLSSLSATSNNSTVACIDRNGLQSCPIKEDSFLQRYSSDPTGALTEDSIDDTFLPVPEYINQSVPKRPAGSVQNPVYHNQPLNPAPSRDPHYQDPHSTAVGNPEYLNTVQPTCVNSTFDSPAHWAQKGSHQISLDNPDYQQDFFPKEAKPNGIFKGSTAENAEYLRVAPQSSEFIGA
T4 sequence (P00533 25-1210 T790M/L858R): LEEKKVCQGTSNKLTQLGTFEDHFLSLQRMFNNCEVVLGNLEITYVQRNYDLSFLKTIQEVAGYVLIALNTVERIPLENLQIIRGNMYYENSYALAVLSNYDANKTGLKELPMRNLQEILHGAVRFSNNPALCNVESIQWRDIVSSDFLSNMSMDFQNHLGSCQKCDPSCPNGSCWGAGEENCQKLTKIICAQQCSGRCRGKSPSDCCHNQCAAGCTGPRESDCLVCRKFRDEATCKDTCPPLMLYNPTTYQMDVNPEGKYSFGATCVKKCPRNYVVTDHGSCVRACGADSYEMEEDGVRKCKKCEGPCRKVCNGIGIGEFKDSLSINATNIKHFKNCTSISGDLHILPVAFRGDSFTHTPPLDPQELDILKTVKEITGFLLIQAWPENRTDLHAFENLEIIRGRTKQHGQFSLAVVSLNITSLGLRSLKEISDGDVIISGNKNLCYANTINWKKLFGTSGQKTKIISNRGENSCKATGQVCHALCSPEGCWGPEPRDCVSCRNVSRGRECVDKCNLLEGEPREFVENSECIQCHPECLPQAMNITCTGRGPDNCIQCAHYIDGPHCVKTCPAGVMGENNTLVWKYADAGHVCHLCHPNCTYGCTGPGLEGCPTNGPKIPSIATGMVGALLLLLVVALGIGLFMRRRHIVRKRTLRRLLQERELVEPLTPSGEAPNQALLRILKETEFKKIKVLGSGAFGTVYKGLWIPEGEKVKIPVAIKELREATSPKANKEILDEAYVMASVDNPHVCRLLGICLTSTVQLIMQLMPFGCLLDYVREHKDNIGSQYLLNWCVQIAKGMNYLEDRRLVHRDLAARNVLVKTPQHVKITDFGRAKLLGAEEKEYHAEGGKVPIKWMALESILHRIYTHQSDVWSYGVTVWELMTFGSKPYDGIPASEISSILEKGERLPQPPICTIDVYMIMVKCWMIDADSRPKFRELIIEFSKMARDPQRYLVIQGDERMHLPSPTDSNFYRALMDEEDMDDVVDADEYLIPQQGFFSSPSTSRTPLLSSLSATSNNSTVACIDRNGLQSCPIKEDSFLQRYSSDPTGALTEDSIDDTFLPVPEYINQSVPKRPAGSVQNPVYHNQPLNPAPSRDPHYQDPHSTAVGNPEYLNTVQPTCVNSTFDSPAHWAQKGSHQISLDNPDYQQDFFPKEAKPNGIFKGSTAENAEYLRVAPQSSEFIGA

SMILES	IC50 [3] [nM]	GI50 (Ri-1 cells; [11]) [nM]	GI50 [1, 12] [nM]	GI50 (DB cells; DB cells, CellTiter-Glo) [nM]	GI50 (TMD-8 cells; [13]) [nM]	GI50 [2, 14] [nM]	IC50 [4] [nM]	GI50 (WT EGFR cell line A-431; [15]) [nM]	GI50 (Ba/F3 EGFR NPH ins cells; [16]) [nM]	IC50 [5] [nM]	GI50 (Ba/F3 EGFR ASV ins cells; [17]) [nM]	GI50 (OCI-LY-10 cells; [18]) [nM]	also measured
C=CC(=O)Nc1cc(Nc2nccc(-c3cn(C)c4ccccc34)n2)c(OC)cc1N(C)CCN(C)C [AZD9291, osimertinib, reference compound]	–	–	–	–	–	–	–	–	–	–	–	–	GI50 (Ri-1 cells): 2050 nM; GI50 [1, 6]: 294 nM; GI50 (DB cells): 1020 nM; GI50 (TMD-8 cells): 1090 nM; GI50 [2, 7]: 14.5 nM; GI50 (WT EGFR cell line A-431; [8]): 43.7 nM; GI50 (Ba/F3 EGFR NPH ins cells; [9]): 177 nM; GI50 (Ba/F3 EGFR ASV ins cells; [10]): 207 nM; GI50 (OCI-LY-10 cells): 1040 nM
CN(C)C/C=C/C(=O)Nc1cc2c(Nc3ccc(F)c(Cl)c3)ncnc2cc1O[C@H]1CCOC1 [Afatinib, reference compound]	–	–	–	–	–	–	–	–	–	–	–	–	GI50 (Ri-1 cells): 1030 nM; GI50 [1, 6]: 17.8 nM; GI50 (DB cells): 657 nM; GI50 (TMD-8 cells): 1160 nM; GI50 (OCI-LY-10 cells): 1040 nM
C=CC(=O)Nc1cc(Nc2ncnc(Nc3cnc(C)cc3C(C)(C)O)n2)c(OC)cc1N(C)CCN(C)C [Compound 6, N-(2-((2-(dimethylamino)ethyl)(methyl)amino)-5-(4-(4-(2-hydroxypropan-2-yl)-6-methylpyridin-3-ylamino)-1,3,5-triazin-2-ylamino)-4-methoxyphenyl) acrylamide]	97.3	289	534	> 3000	335	93.7	191	64.7	625	381	250	210	–
C=CC(=O)Nc1cc(Nc2ncnc(Nc3ccc(C)nc3C(C)(C)O)n2)c(OC)cc1N(C)CCN(C)C [Compound 7, N-(2-((2-(dimethylamino)ethyl)(methyl)amino)-5-(4-(2-(2-hydroxypropan-2-yl)-6-methylpyridin-3-ylamino)-1,3,5-triazin-2-ylamino)-4-methoxyphenyl) acrylamide]	19.7	> 3000	161	> 3000	188	25	40.5	37.9	212	46.6	145	130	–
C=CC(=O)Nc1cc(Nc2ncnc(Nc3ccccc3C3(O)COC3)n2)c(OC)cc1N(C)CCN(C)C [Compound 10, N-(2-((2-(dimethylamino)ethyl)(methyl)amino)-5-(4-(2-(3-hydroxyoxetan-3-yl)phenylamino)-1,3,5-triazin-2-ylamino)-4-methoxyphenyl)acrylamide]	231	> 3000	274	> 3000	> 3000	76.3	73.4	79.4	189	119	198	> 3000	–
C=CC(=O)Nc1cc(Nc2ncnc(Nc3ccc(C(F)(F)F)cc3C(C)(C)O)n2)c(OC)cc1N(C)CCN(C)C [Compound 13, N-(2-((2-(dimethylamino)ethyl)(methyl)amino)-5-(4-(2-(2-hydroxypropan-2-yl)-4-(trifluoromethyl)phenylamino)-1,3,5-triazin-2-ylamino)-4-methoxyphenyl)acrylamide]	36.4	120	156	> 3000	56.3	15.3	22.9	22.5	76.5	40.1	53.3	54.5	–
C=CC(=O)Nc1cc(Nc2ncnc(Nc3cc(F)c(F)cc3C(C)(C)O)n2)c(OC)cc1N(C)CCN1CCCCC1 [Compound 24]	49	415	303	> 3000	107	23	30	55.5	142	65	101	324	–
C=CC(=O)Nc1cc(Nc2ncc(Cl)c(Nc3cc(Cl)c(F)cc3C(C)(C)O)n2)c(OC)cc1N(C)CCN(C)C [Compound 78, N-(5-(5-chloro-4-(5-chloro-4-fluoro-2-(2-hydroxypropan-2-yl)phenylamino)pyrimidin-2-ylamino)-2-((2-(dimethylamino)ethyl)(methyl)amino)-4-methoxyphenyl)acrylamide]	19.7	77.8	49.2	> 3000	10.3	1.4	–	21.5	60	–	35.7	6.2	–
C=CC(=O)Nc1cc(Nc2ncc(OC)c(Nc3cc(Cl)c(F)cc3C(C)(C)O)n2)c(OC)cc1N(C)CCN(C)C [Compound 81, N-(5-(4-(5-chloro-4-fluoro-2-(2-hydroxypropan-2-yl)phenylamino)-5-methoxypyrimidin-2-ylamino)-2-((2-(dimethylamino)ethyl)(methyl)amino)-4-methoxyphenyl)acrylamide]	303	–	354	–	–	4.6	–	35.7	136	81.5	149	–	IC50 (EGFR L858R&T790M): 1.1 nM
C=CC(=O)Nc1cc(Nc2nccc(Nc3cc(Cl)c(F)cc3C(C)(C)O)n2)c(OC)cc1N(C)C[C@H]1C[C@H](C)CN1C [Compound 90, N-(5-(4-(5-chloro-4-fluoro-2-(2-hydroxypropan-2-yl)phenylamino)pyrimidin-2-ylamino)-2-((((2R,4S)-1,4-dimethylpyrrolidin-2-yl)methyl)(methyl)amino)-4-methoxyphenyl) acrylamide formic acid salt]	27.6	83.8	284	> 3000	45	–	57.2	–	–	30.8	–	82.7	GI50 [2, 7]: 6.1 nM; GI50 (WT EGFR cell line A-431; [8]): 59.4 nM; GI50 (Ba/F3 EGFR NPH ins cells; [9]): 76.4 nM; GI50 (Ba/F3 EGFR ASV ins cells; [10]): 83.1 nM
Cc1cc(C(=O)Nc2nc3cccc(Cl)c3n2[C@@H]2CCCCN(C(=O)/C=C/CN(C)C)C2)ccn1 [EGF816, reference compound]	116	897	242	> 3000	166	42.5	–	265	491	–	502	235	–
CCOc1cc2ncc(C#N)c(Nc3ccc(OCc4ccccn4)c(Cl)c3)c2cc1NC(=O)/C=C/CN(C)C [Neratinib, reference compound]	–	–	–	–	–	–	–	–	–	–	–	–	GI50 [1, 6]: 5.2 nM; GI50 [2, 7]: 110 nM; GI50 (WT EGFR cell line A-431; [8]): 15.9 nM; GI50 (Ba/F3 EGFR NPH ins cells; [9]): 700 nM; GI50 (Ba/F3 EGFR ASV ins cells; [10]): 88 nM
C=CC(=O)N1CCC(Oc2cc3c(Nc4ccc(Cl)c(Cl)c4F)ncnc3cc2OC)CC1 [Poziotinib, reference compound]	0.8	1230	4.7	> 3000	2410	19.4	–	0.5	7.2	–	4.1	1000	–
